Literature values as cited in patent US20240335422A1, “COMPOSITION AND METHODS OF TREATMENT USING TRANSDERMAL SUPPLEMENTATION” (Xygenyx Inc., priority 2023, published 2024).

What was measured:
skin [1] = conditions: single penetration enhancer
[2] = system: wide dynamic range neurons in the ventroposterolateral nucleus of the thalamus; conditions: in vivo
skin [3] = conditions: topical, concentrations 0.5-5%
skin [4] = conditions: topical, in combination with silymarin and tocopherols, test studies
[5] = not given; remark: listed apart in the source
[6] = compared to α-tocopherol taken as 1.0
[7] = even when dietary intake occurs in equal portions
[8] = in vivo

CC(C)[C@@H]1CC[C@@H](C)C[C@H]1O [Menthol]
increase of transdermal drug uptake (factor) (skin [1]): ≥ 10

CCCCCc1cc(O)c2c(c1)OC(C)(C)C1CCC(C)=CC21 (stereo not drawn) [THC, Δ-9-tetrahydrocannabinol]
analgesic power relative to morphine [2]: ten times more powerful than morphine

C=CCCCCCCCCC(=O)N[C@@H](Cc1ccccc1)C(=O)O [UP, Undecylenoyl phenylalanine]
time of treatment to skin lightening effects (skin [3]): ≥ 7 days

NCCC(=O)N[C@@H](Cc1cnc[nH]1)C(=O)O [carnosine, Carnosine]
reduction of age-related wrinkles (skin [4]): ≤ 27%

CC12CCC(CC1)C(C)(C)O2 [eucalyptol, 1,8-epoxy-p-menthane]
increase of transdermal drug uptake (factor) (skin [1]): more than 10

C/C(=C\CO)CCC[C@H](C)CCC[C@H](C)CCCC(C)C [phytol, Phytol]
solubility: nearly insoluble in water, but soluble in most organic solvents

Cc1c(C)c2c(c(C)c1O)CC[C@@](C)(CCC[C@H](C)CCC[C@H](C)CCCC(C)C)O2 [α-tocopherol]
reduction of risk of coronary disease ([5]; dietary supplementation, doses up to 400 IU/day): up to 34% | reduction of risk of developing neurodegenerative diseases (Alzheimer's Syndrome or dementia) ([5]; dietary supplementation, doses up to 400 IU/day, controlled trials): ≤ 24% | reduction in the development of age-related cataracts ([5]; in combination with 10-20 mg β-carotene and 400-500 mg vitamin C, doses around 400-500 IU): 23% | blood plasma concentration of F2-isoprostane ([5]; large doses of 1600-3200 IU/day): significantly lower

Cc1cc(O)c(C)c2c1O[C@](C)(CCC[C@H](C)CCC[C@H](C)CCCC(C)C)CC2 [β-tocopherol]
relative biological activity [6]: 0.5

Cc1c(O)cc2c(c1C)O[C@](C)(CCC[C@H](C)CCC[C@H](C)CCCC(C)C)CC2 [γ-tocopherol]
concentration in vivo relative to α-tocopherol [7]: roughly 10% | relative biological activity [6]: 0.1

Cc1cc(O)cc2c1O[C@](C)(CCC[C@H](C)CCC[C@H](C)CCCC(C)C)CC2 [δ-tocopherol]
relative biological activity [6]: 0.03

HGH: hormone comprising a peptide chain synthesized in the pituitary gland
biological half-life [8]: 10-20 minutes
